Experimental data published in ChEMBL document CHEMBL6092167, “Phosphorylation as an Effective Tool to Improve Stability and Reduce Toxicity of Antimicrobial Peptides” (J Med Chem, 2024).
Values after ≈ are worked out from the molar mass of the structure shown. Active and inactive are the calls of the source. The calls are words filed in the database; no cut-off is given here. Non-standard residues stand in square brackets, D forms with d. Residues, ends and D or L forms follow the SMILES beside them. Bip = N[C@@H](Cc1ccc(-c2ccccc2)cc1)C(=O)O; pY = N[C@@H](Cc1ccc(OP(=O)(O)O)cc1)C(=O)O; pT = C[C@@H](OP(=O)(O)O)[C@H](N)C(=O)O

How the values were obtained:
Staphylococcus aureus [1] = assay: Antibacterial activity against Staphylococcus aureus ATCC 25923 infected in BALB/c mouse systemic infection model assessed as reduction in bacterial load in kidney at 1.09 mg/kg, ip pre-infected for 2 hrs followed by compound addition and measured after 8 hrs postinfection; format: functional, organism-based; conditions: time 6.0 hrs
Acinetobacter baumannii = assay: Antibacterial activity against Acinetobacter baumannii ATCC 19606 incubated for 18 to 24 hrs by broth microdilution method; format: functional; conditions: time 18-24 hrs
Staphylococcus aureus [2] = assay: Antibacterial activity against Staphylococcus aureus ATCC 25923 infected in BALB/c mouse systemic infection model assessed as reduction in tissue hemorrhage at 1.09 mg/kg, ip pre-infected for 2 hrs followed by compound addition and measured after 8 hrs postinfection; format: functional, organism-based; conditions: time 6.0 hrs
Staphylococcus aureus [3] = assay: Antibacterial activity against Staphylococcus aureus ATCC 25923 infected in BALB/c mouse systemic infection model assessed as reduction in bacterial load in lung at 1.09 mg/kg, ip pre-infected for 2 hrs followed by compound addition and measured after 8 hrs postinfection; format: functional, organism-based; conditions: time 6.0 hrs
Staphylococcus aureus [4] = assay: Antibacterial activity against Staphylococcus aureus ATCC 25923 infected in BALB/c mouse systemic infection model assessed as improved alveoli dilation at 1.09 mg/kg, ip pre-infected for 2 hrs followed by compound addition and measured after 8 hrs postinfection; format: functional, organism-based; conditions: time 6.0 hrs
Pseudomonas aeruginosa [5] = assay: Antibacterial activity against Pseudomonas aeruginosa ATCC 27853 incubated for 18 to 24 hrs by broth microdilution method; format: functional; conditions: time 18-24 hrs
Staphylococcus aureus [6] = assay: Antibacterial activity against methicillin resistant Staphylococcus aureus ATCC 33591 incubated for 18 to 24 hrs by broth microdilution method; format: functional; conditions: time 18-24 hrs
Staphylococcus aureus [7] = assay: Antibacterial activity against Staphylococcus aureus 794 incubated for 18 to 24 hrs by broth microdilution method; format: functional; conditions: time 18-24 hrs
Staphylococcus aureus [8] = assay: Antibacterial activity against Staphylococcus aureus ATCC 25923 infected in BALB/c mouse systemic infection model assessed as reduction in bacterial load in liver at 1.09 mg/kg, ip pre-infected for 2 hrs followed by compound addition and measured after 8 hrs postinfection; format: functional, organism-based; conditions: time 6.0 hrs
Staphylococcus aureus [9] = assay: Antibacterial activity against Staphylococcus aureus ATCC 25923 infected in BALB/c mouse systemic infection model assessed as reduction in bacterial load in spleen at 1.09 mg/kg, ip pre-infected for 2 hrs followed by compound addition and measured after 8 hrs postinfection; format: functional, organism-based; conditions: time 6.0 hrs
Klebsiella pneumoniae [10] = assay: Antibacterial activity against Klebsiella pneumoniae ATCC 700603 incubated for 18 to 24 hrs by broth microdilution method; format: functional; conditions: time 18-24 hrs
Staphylococcus aureus [11] = assay: Antibacterial activity against methicillin resistant Staphylococcus aureus 48 incubated for 18 to 24 hrs by broth microdilution method; format: functional; conditions: time 18-24 hrs
Pseudomonas aeruginosa [12] = assay: Antibacterial activity against Pseudomonas aeruginosa 119 incubated for 18 to 24 hrs by broth microdilution method; format: functional; conditions: time 18-24 hrs
Bacillus subtilis = assay: Antibacterial activity against Bacillus subtilis ATCC 23857 incubated for 18 to 24 hrs by broth microdilution method; format: functional; conditions: time 18-24 hrs
Staphylococcus aureus [13] = assay: Antibacterial activity against Staphylococcus aureus ATCC 25923 incubated for 18 to 24 hrs by broth microdilution method; format: functional; conditions: time 18-24 hrs
Staphylococcus aureus [14] = assay: Antibacterial activity against Staphylococcus aureus ATCC 25923 infected in BALB/c mouse systemic infection model assessed as reduction in inflammatory response in lung tissue at 1.09 mg/kg, ip pre-infected for 2 hrs followed by compound addition and measured after 8 hrs postinfection; format: functional, organism-based; conditions: time 6.0 hrs
Klebsiella pneumoniae [15] = assay: Drug resistance development in Klebsiella pneumoniae ATCC 700603 assessed as fold increase in MIC measured after 7 passage; format: functional
Escherichia coli [16] = assay: Antibacterial activity against Escherichia coli ATCC 25922 incubated for 18 to 24 hrs by broth microdilution method; format: functional; conditions: time 18-24 hrs
Staphylococcus aureus [17] = assay: Antibiofilm activity against Staphylococcus aureus ATCC 25923 assessed as eradication of preformed biofilms at 4 times MIC incubated for 24 hrs by crystal violet staining based assay; format: functional, organism-based
Staphylococcus aureus [18] = assay: Inhibition of biofilm formation in Staphylococcus aureus ATCC 25923 at 2 times MIC incubated for 24 hrs by crystal violet staining based assay; format: functional, organism-based
Staphylococcus aureus [19] = assay: Bactericidal activity against Staphylococcus aureus ATCC 25923 at 2 times MIC incubated for 24 hrs by time kill assay; format: functional
Escherichia coli [20] = assay: Antibacterial activity against Escherichia coli 850 incubated for 18 to 24 hrs by broth microdilution method; format: functional; conditions: time 18-24 hrs
Escherichia coli [21] = assay: Antibacterial activity against Escherichia coli 780 incubated for 18 to 24 hrs by broth microdilution method; format: functional; conditions: time 18-24 hrs
[22] = Cytotoxicity against HEK293T cells incubated for 1 hr by fluorescence based microplate reader assay; format: toxicity, cell-based, HEK-293T; conditions: human
[23] = Hemolytic activity in mouse erythrocyte incubated for 1 hr by microplate reader assay; format: toxicity, cell-based

Row | Compound | MIC (Acinetobacter baumannii) [µM] | MIC (Pseudomonas aeruginosa [5]) [µM] | MIC (Staphylococcus aureus [6]) [µM] | MIC (Staphylococcus aureus [7]) [µM] | MIC (Klebsiella pneumoniae [10]) [µM] | MIC (Staphylococcus aureus [11]) [µM] | MIC (Pseudomonas aeruginosa [12]) [µM] | MIC (Bacillus subtilis) [µM] | MIC (Staphylococcus aureus [13]) [µM] | MIC (Escherichia coli [16]) [µM] | MIC (Escherichia coli [20]) [µM] | MIC (Escherichia coli [21]) [µM] | CC50 at 1 h [22] [µM] | MHC [23] [µM] | further results
1 | CNC(C)[C@@H]1CC[C@@H](N)[C@@H](O[C@H]2[C@H](O)[C@@H](O[C@H]3OC[C@](C)(O)[C@H](NC)[C@H]3O)[C@H](N)C[C@@H]2N)O1.CN[C@@H]1[C@@H](O)[C@@H](O[C@@H]2[C@@H](O)[C@H](O[C@H]3O[C@H](C(C)N)CC[C@H]3N)[C@@H](N)C[C@H]2N)OC[C@]1(C)O.CN[C@@H]1[C@@H](O)[C@@H](O[C@@H]2[C@@H](O)[C@H](O[C@H]3O[C@H](CN)CC[C@H]3N)[C@@H](N)C[C@H]2N)OC[C@]1(C)O (stereo not given in full) | 8 | < 1 | 32 | 64 | 8 | 64 | > 128 | < 1 | < 1 | – | – | – | – | – | Activity (Staphylococcus aureus [1]): Active; Activity (Staphylococcus aureus [2]): Active; Activity (Staphylococcus aureus [3]): Active; Activity (Staphylococcus aureus [4]): inactive; Activity (Staphylococcus aureus [8]): Active; Activity (Staphylococcus aureus [9]): Active; Activity (Staphylococcus aureus [14]): Active
2 | CO[C@H]1/C=C/O[C@@]2(C)Oc3c(C)c(O)c4c(O)c(c(/C=N/N5CCN(C)CC5)c(O)c4c3C2=O)NC(=O)/C(C)=C\C=C\[C@H](C)[C@H](O)[C@@H](C)[C@@H](O)[C@@H](C)[C@H](OC(C)=O)[C@@H]1C [RIFAMPIN] | 1 (≈ 0.823 µg/mL) | 32 (≈ 26.3 µg/mL) | – | – | 32 (≈ 26.3 µg/mL) | – | – | < 1 | < 1 | 8 (≈ 6.58 µg/mL) | – | – | – | – | fold change (FC) (Klebsiella pneumoniae [15]): 128
3 | CN[C@H](CC(C)C)C(=O)N[C@H]1C(=O)N[C@@H](CC(N)=O)C(=O)N[C@H]2C(=O)N[C@H]3C(=O)N[C@H](C(=O)N[C@H](C(=O)O)c4cc(O)cc(O)c4-c4cc3ccc4O)[C@H](O)c3ccc(c(Cl)c3)Oc3cc2cc(c3O[C@@H]2O[C@H](CO)[C@@H](O)[C@H](O)[C@H]2O[C@H]2C[C@](C)(N)[C@H](O)[C@H](C)O2)Oc2ccc(cc2Cl)[C@H]1O [VANCOMYCIN] | 64 (≈ 92.8 µg/mL) | > 128 | < 1 | 128 (≈ 186 µg/mL) | > 128 | < 1 | > 128 | < 1 | < 1 | 128 (≈ 186 µg/mL) | 128 (≈ 186 µg/mL) | 128 (≈ 186 µg/mL) | – | – | Activity (Staphylococcus aureus [17]): Active; Showed Poor Efficacy; inhibition (Staphylococcus aureus [18]): Active; Activity (Staphylococcus aureus [19]): 100%
4 | H-GLWKRLKTLL-NH2 | 32 | 4 | 8 | 8 | 8 | 8 | 16 | 4 | 16 | 8 | 8 | 8 | > 128 | > 256 | –
5 | CC(C)C[C@H](NC(=O)[C@H](CC(C)C)NC(=O)[C@H](Cc1ccc(OP(=O)(O)O)cc1)NC(=O)[C@H](CCCCN)NC(=O)[C@H](Cc1c[nH]c2ccccc12)NC(=O)[C@H](CCCNC(=N)N)NC(=O)[C@H](CCCCN)NC(=O)[C@H](CC(C)C)NC(=O)[C@H](CC(C)C)NC(=O)CN)C(N)=O (H-GLLKRWK[pY]LL-NH2) | 64 (≈ 87.6 µg/mL) | 128 (≈ 175 µg/mL) | > 128 | 32 (≈ 43.8 µg/mL) | 128 (≈ 175 µg/mL) | > 128 | 128 (≈ 175 µg/mL) | 64 (≈ 87.6 µg/mL) | > 128 | 64 (≈ 87.6 µg/mL) | 64 (≈ 87.6 µg/mL) | 64 (≈ 87.6 µg/mL) | > 128 | > 256 | –
6 | CC(C)C[C@H](NC(=O)[C@H](CC(C)C)NC(=O)[C@@H](NC(=O)[C@H](CCCCN)NC(=O)[C@H](CC(C)C)NC(=O)[C@H](CCCNC(=N)N)NC(=O)[C@H](CCCCN)NC(=O)[C@H](Cc1ccc(-c2ccccc2)cc1)NC(=O)[C@H](CC(C)C)NC(=O)CN)[C@@H](C)OP(=O)(O)O)C(N)=O (H-GL[Bip]KRLK[pT]LL-NH2) | 32 (≈ 43 µg/mL) | 16 (≈ 21.5 µg/mL) | 54 (≈ 72.6 µg/mL) | 16 (≈ 21.5 µg/mL) | 64 (≈ 86 µg/mL) | 32 (≈ 43 µg/mL) | 32 (≈ 43 µg/mL) | 16 (≈ 21.5 µg/mL) | 64 (≈ 86 µg/mL) | 32 (≈ 43 µg/mL) | 32 (≈ 43 µg/mL) | 16 (≈ 21.5 µg/mL) | 112 | 125.83 | –
